Article PMC8151276, “An Integrated Approach toward NanoBRET Tracers for Analysis of GPCR Ligand Engagement” (Molecules, 2021)

Molecular target: T1, GPR50 (Homo sapiens, UniProt Q13585)
T1 construct: purchased Promega (in-house HiBiT-GPCR construct library, NanoBRET)
Assay: NanoBRET screen HiBiT-GPR50 in HEK293
Type: binding
Description: Each tracer candidate was screened across the entire library of HiBiT-GPCR constructs using NanoBRET as the detection modality. As depicted in Figure 4A, the specificity of interactions was evaluated through decrease in BRET due to competitive displacement of a bound tracer by excess parental compound. Each tracer was analyzed for binding to each HiBiT-GPCR fusion in the absence and in the presence of competing parental compound. Briefly, HEK293 cells were transfected with HiBiT-GPCR constructs diluted into promoterless DNA to reduce expression and maximize translocation to the cell surface. Each tracer candidate was then screened at concentrations of 1 μM and 0.1 μM across cells expressing these fusions. Cells were treated for 1.5 h with tracer either alone or in the presence of 20 μM competing parental compound (i.e., control). BRET was measured upon addition of purified LgBiT and subsequent complementation with HiBiT genetically fused to a GPCR. The specificity of interactions was assessed through a decrease in BRET signal due to competitive displacement of the bound tracer. To further gauge the robustness of these interactions, the fold response over the control (i.e., BRETtracer/BRETcontrol) was calculated. We chose a 1.5-fold response, which translates to ≥7-fold signal over noise as the minimal threshold required to score an interaction as positive.
HiBiT-GPCR DNA constructs were diluted in 10 mM Tris pH 8 to a final concentration of 0.01 μg/μL, arrayed in 96-well plates and stored at −20 °C. For transfection, HEK293 cells were suspended in Opti-MEM (without phenol red) supplemented with 2% fetal bovine serum (Seradigm) and 100 units/mL penicillin–streptomycin (Gibco) at a final concentration of 220,000 cells/mL and dispensed into white 96-well plates at 90 μL/well. Subsequent transfections and screens were carried using an Agilent Bravo Automated Liquid Handling Platform. First, the 96-well HiBiT DNA arrays were diluted 25-fold in Opti-MEM (without serum or phenol red) to a final concentration of 0.0004 μg/μL and 20 μL of the diluted DNAs were transferred into new 96-well plates. Next, promoterless carrier DNA (1 μg/μL) was diluted 25-fold (0.04 μg/μL) and then dispensed into the diluted arrays at 20 μL/well. Following brief mixing, Viafect transfection reagent (Promega) diluted 16-fold into Opti-MEM was dispensed into the plates at 40 μL/well. After mixing by pipetting, plates were incubated for 10 min on the pipetting station deck. The DNA-transfection reagent complexes were then added to plates containing cells. To facilitate the screen, 10 μL of DNA-transfection reagent complexes were added in duplicates to the top 4 and bottom 4 rows, resulting in two identical 48-well arrays per plate. Plates with transfected cells were incubated for 18–20 h at 37 °C/5% CO2. A screen of each tracer across the entire library using two different concentrations requires duplicate plates of transfected cells. Depending on the number of tracers being screened, transfections can be scaled up using the same ratios. The next day, for each tracer, four 20× screening solutions in tracer dilution buffer (Promega) were prepared: two duplicates at final concentration of 20 μM and two duplicates at a final concentration of 2 μM. […] The four resulting solutions were diluted 4-fold in Opti-MEM without serum or phenol red to generate 5× solutions (5 µM and 0.5 µM tracer +/− 100 μM competing compound). To screen the library, a BioTek MultiFlo FX liquid dispenser was used to dispense 22.5 µL of tracer solution to the top 4 rows and 22.5 µL tracer + competing compound solution to the 4 bottom rows. Plates were briefly mixed on an orbital shaker and incubated for 1.5 h at room temperature. […] Plates were briefly mixed on an orbital shaker and incubated for 15 min to allow complementation.

T1 sequence (Q13585 whole entry): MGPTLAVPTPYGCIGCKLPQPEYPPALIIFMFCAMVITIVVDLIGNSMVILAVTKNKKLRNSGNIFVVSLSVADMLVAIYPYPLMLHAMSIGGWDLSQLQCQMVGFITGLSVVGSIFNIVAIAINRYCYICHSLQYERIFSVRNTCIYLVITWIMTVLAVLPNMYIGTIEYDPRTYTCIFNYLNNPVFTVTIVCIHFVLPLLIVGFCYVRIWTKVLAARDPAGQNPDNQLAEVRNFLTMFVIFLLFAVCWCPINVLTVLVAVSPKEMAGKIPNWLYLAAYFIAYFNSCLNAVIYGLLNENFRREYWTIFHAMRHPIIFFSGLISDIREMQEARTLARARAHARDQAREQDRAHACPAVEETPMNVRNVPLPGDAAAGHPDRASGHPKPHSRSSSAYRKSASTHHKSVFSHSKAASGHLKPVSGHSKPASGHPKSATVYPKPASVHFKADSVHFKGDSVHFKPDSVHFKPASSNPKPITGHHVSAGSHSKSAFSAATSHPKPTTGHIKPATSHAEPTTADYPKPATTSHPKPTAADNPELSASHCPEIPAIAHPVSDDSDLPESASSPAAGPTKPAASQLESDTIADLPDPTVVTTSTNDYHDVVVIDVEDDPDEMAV

CCOC(=O)c1cc(C#N)c(N2CCC(C(=O)NS(=O)(=O)Cc3ccccc3/C=C/C(=O)NCCNC(=O)CCc3ccc4n3[B-](F)(F)[N+]3=C(c5ccc[nH]5)C=CC3=C4)CC2)nc1C [AZD1283-1-NB590]
NanoBRET Fold Response (GPR50, 0.1μM): 0.97 | NanoBRET Fold Response (GPR50, 1μM): 0.97

N#CN=C(NCCCOc1cccc(CN2CCCCC2)c1)NCCNC(=O)CCOCCOCCOCCOCCNC(=O)CCc1ccc2n1[B-](F)(F)[N+]1=C(c3ccc[nH]3)C=CC1=C2 [Aminopotentidine-2-NB590]
NanoBRET Fold Response (GPR50, tracer 0.1μM): 1.02 | NanoBRET Fold Response (GPR50, tracer 1μM): 0.97

CN(C)CCC=C1c2ccccc2CCc2ccc(C(=O)NCCNC(=O)CCOCCOCCOCCOCCNC(=O)CCc3ccc4n3[B-](F)(F)[N+]3=C(c5ccc[nH]5)C=CC3=C4)cc21 [Amitriptyline-b-2-NB590]
NanoBRET Fold Response (GPR50, tracer 0.1μM): 0.99 | NanoBRET Fold Response (GPR50, tracer 1μM): 0.99

COc1ccc2c(n1)c(CCNC(C)=O)cn2CCNC(=O)CCc1ccc2n1[B-](F)(F)[N+]1=C(c3ccc[nH]3)C=CC1=C2 [Azamelatonin-1-NB590]
NanoBRET Fold Response (0.1μM tracer): 0.95 | NanoBRET Fold Response (1μM tracer): 0.91

COc1ccc2[nH]c(-c3ccc(CNC(=O)CCOCCOCCOCCOCCNC(=O)CCc4ccc5n4[B-](F)(F)[N+]4=C(c6ccc[nH]6)C=CC4=C5)cc3)c(CCNC(C)=O)c2n1 [AzomelatoninICO9-2-NB590]
NanoBRET Fold Response (0.1μM tracer): 0.96 | NanoBRET Fold Response (1μM tracer): 1.01

O=C(CCOCCOCCOCCOCCNC(=O)CCc1ccc2n1[B-](F)(F)[N+]1=C(c3ccc[nH]3)C=CC1=C2)NCCCN1CCN(C2=Nc3cc(Cl)ccc3Nc3ccccc32)CC1 [Clozapine-a-2-NB590]
NanoBRET Fold Response (GPR50, 0.1μM tracer): 1.04 | NanoBRET Fold Response (GPR50, 1μM tracer): 1.00

CN1CCN(C2=Nc3cc(Cl)ccc3Nc3ccc(CNC(=O)CCOCCOCCOCCOCCNC(=O)CCc4ccc5n4[B-](F)(F)[N+]4=C(c6ccc[nH]6)C=CC4=C5)cc32)CC1 [Clozapine-b-2-NB590]
NanoBRET Fold Response (GPR50, 0.1μM tracer): 0.98 | NanoBRET Fold Response (GPR50, 1μM tracer): 0.97

O=C(CCOCCOCCOCCOCCNC(=O)CCc1ccc2n1[B-](F)(F)[N+]1=C(c3ccc[nH]3)C=CC1=C2)NCCCN1CCN(C2=Nc3ccccc3Oc3ccc(Cl)cc32)CC1 [Loxapine-a-2-NB590]
NanoBRET Fold Response (GPR50, tracer 0.1μM): 0.74 | NanoBRET Fold Response (GPR50, tracer 1μM): 1.09

COc1ccccc1N1CCN(CCCCN2C(=O)c3ccc(CNC(=O)CCOCCOCCOCCOCCNC(=O)CCc4ccc5n4[B-](F)(F)[N+]4=C(c6ccc[nH]6)C=CC4=C5)cc3C2=O)CC1 [NAN-190-2-NB590]
NanoBRET Fold Response (GPR50, tracer 0.1μM): 1.00

COc1ccccc1N1CCN(CCCCN2C(=O)c3ccc(CNC(=O)CCOCCNC(=O)c4ccc(CNC(=O)CCc5ccc6n5[B-](F)(F)[N+]5=C(c7ccc[nH]7)C=CC5=C6)cc4)cc3C2=O)CC1 [NAN-190-3-NB590]
NanoBRET Fold Response (GPR50, tracer 0.1μM): 0.97 | NanoBRET Fold Response (GPR50, tracer 1μM): 0.89

O=C(CCc1ccc2n1[B-](F)(F)[N+]1=C(c3ccc[nH]3)C=CC1=C2)NCc1ccc(C(=O)NCCOCCC(=O)N[C@@H]2CC[C@@]3(O)[C@H]4Cc5ccc(O)c6c5[C@@]3(CCN4CC3CC3)[C@H]2O6)cc1 [Naltrexone-3-NB590]
NanoBRET Fold Response (GPR50, tracer 0.1μM): 0.94 | NanoBRET Fold Response (GPR50, tracer 1μM): 0.97

Cc1cc2c(s1)Nc1ccccc1N=C2N1CCN(CCCNC(=O)CCOCCOCCOCCOCCNC(=O)CCc2ccc3n2[B-](F)(F)[N+]2=C(c4ccc[nH]4)C=CC2=C3)CC1 [Olanzapine-a-2-NB590]
NanoBRET Fold Response (GPR50, tracer 0.1μM): 1.01 | NanoBRET Fold Response (GPR50, tracer 1μM): 1.03

O=C(CCc1ccc2n1[B-](F)(F)[N+]1=C(c3ccc[nH]3)C=CC1=C2)NCc1ccc(C(=O)NCCOCCOCCNCC(O)COc2cccc3ccccc23)cc1 (centres unmarked) [Propranolol-3-NB590]
NanoBRET Fold Response (GPR50, 0.1μM): 1.01 | NanoBRET Fold Response (GPR50, 1μM): 1.05

O=C(CCc1ccc2n1[B-](F)(F)[N+]1=C(c3ccc[nH]3)C=CC1=C2)NCCOCCOCCNC(=O)OCCOCCN1CCN(C2=Nc3ccccc3Sc3ccccc32)CC1 [Quetiapine-a-2-NB590]
NanoBRET Fold Response (GPR50, tracer 0.1μM): 1.11 | NanoBRET Fold Response (GPR50, tracer 1μM): 0.96

Cc1nc2n(c(=O)c1CCN1CCC(c3noc4cc(F)ccc34)CC1)CCCC2OC(=O)NCCOCCOCCOCCOCCNC(=O)CCc1ccc2n1[B-](F)(F)[N+]1=C(c3ccc[nH]3)C=CC1=C2 (centres unmarked) [Risperidone-2-NB590]
NanoBRET Fold Response (GPR50, tracer 0.1μM): 0.99 | NanoBRET Fold Response (GPR50, tracer 1μM): 1.01

CC(C)N(CC[C@H](c1ccccc1)c1cc(CCNC(=O)CCOCCOCCOCCOCCNC(=O)CCc2ccc3n2[B-](F)(F)[N+]2=C(c4ccc[nH]4)C=CC2=C3)ccc1O)C(C)C [Tolterodine-2-NB590]
NanoBRET Fold Response (GPR50, tracer 0.1μM): 1.12 | NanoBRET Fold Response (GPR50, tracer 1μM): 0.93

CC(C)N(CC[C@H](c1ccccc1)c1cc(CCNC(=O)c2ccc(CNC(=O)CCc3ccc4n3[B-](F)(F)[N+]3=C(c5ccc[nH]5)C=CC3=C4)cc2)ccc1O)C(C)C [Tolterodine-BZ-NB590]
NanoBRET Fold Response (GPR50, tracer 0.1μM): 0.94 | NanoBRET Fold Response (GPR50, tracer 1μM): 0.39

CCCn1c(=O)c2[nH]c(-c3ccc(OCC(=O)NCCNC(=O)CCOCCNC(=O)c4ccc(CNC(=O)CCc5ccc6n5[B-](F)(F)[N+]5=C(c7ccc[nH]7)C=CC5=C6)cc4)cc3)nc2n(CCC)c1=O [XAC-3-NB590]
NanoBRET Fold Response (GPR50, tracer 0.1μM): 1.05 | NanoBRET Fold Response (GPR50, tracer 1μM): 1.04
